Measurements: patent publication US7741032B2, “Genotyping assay to predict gamma glutamyl hydrolase (GGH) activity” (St. Jude Children's Research Hospital, Inc., priority 2004, dated 2010)

Assays:
T127I variant GGH = target: T1, T127I variant GGH (Homo sapiens, UniProt Q92820, T151I); experiment: Enzyme kinetic analysis of heterologously expressed wild-type and T127I variant GGH with MTX-PG as substrate; assay type: biochemical; conditions: recombinant GGH, substrate as labelled; for catalytic efficiency (Vmax/Km) reduction of T127I variant: versus wild-type, p=0.003
T1 construct: A cDNA encoding the 294 amino acids of human GGH (with out leading peptide) was cloned by RT-PCR; made in house; host or cells: E. coli BL21(DE3)pLysS
T1 sequence (Q92820 25-318 T151I): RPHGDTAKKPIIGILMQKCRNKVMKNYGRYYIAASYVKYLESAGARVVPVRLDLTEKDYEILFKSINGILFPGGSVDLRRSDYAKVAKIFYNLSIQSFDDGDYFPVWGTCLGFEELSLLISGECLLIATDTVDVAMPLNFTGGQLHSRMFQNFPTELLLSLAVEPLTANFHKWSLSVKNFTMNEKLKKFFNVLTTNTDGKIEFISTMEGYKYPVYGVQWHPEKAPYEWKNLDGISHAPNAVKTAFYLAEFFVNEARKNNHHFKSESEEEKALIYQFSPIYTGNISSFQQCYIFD
Method: Wild-type human GGH cloning and site-directed mutagenesis: A cDNA encoding the 294 amino acids of human GGH (with out leading peptide) was cloned by RT-PCR and TA cloning (Invitrogen, Carlsbad, Calif.) using RNA isolated from human CEM cells. Plasmid DNA was purified using the mini prep kit (Qiagen, Santa Clarita, Calif.). After sequencing, the selected cDNA clone was subcloned into the pET28b vector (Novagen, Madison, Wis.) from Nde1 and BamH1 sites, and an N-terminal HisTag was added. This HisTag enabled the purification of large quantities of protein and had no effect on GGH activity (Chave, K. J. et al., 2000, id). Site-directed mutagenesis was performed with the QuickChange II kit (Stratagene, La Jolla, Calif.) according to the manufacturer's protocol. The primers used for mutagenesis of wild-type human GGH to T127I were
Expression and characterization of T127I variant GGH: Plasmids carrying wild-type and T127I variant GGH were used to transform E. coli strain BL21(DE3)pLysS competent cells (Novagen, Madison, Wis.). The E. coli cells were grown in LB medium containing 30 μg/ml kanamycin and 34 μg/ml chloramphenicol at 37° C. to OD600 about 0.6 and expression was induced with 1 mM isopropyl-β-D-thiogalactoside for 3 h. Cells were harvested by centrifugation at 5,000 g for 5 min at 4° C., and were kept as a frozen pellet at −70° C. Target proteins were extracted using BugBuster His-Bind Purification kit (Novagen, Madison, Wis.), followed by gel filtration chromatography at 4° C. on a HiLoad 26/60 S200 Superdex column (Amersham Pharmacia Biotech, Sweden) in 0.05 M sodium acetate buffer, pH5.5, containing 0.05 M 2-mercaptoethanol, 1 M NaCl, and 1 mM EDTA. Fractions containing target proteins were pooled and proteins were concentrated using Viva Cell 70 ml Concentrator, followed by Viva Cpin 2 ml Concentrator (Vivascience, Edgewood, NY).
Wild-type and T127I variant forms of human GGH were separated using NuPAGE™ 4-12% Bis-Tris Gel (Invitrogen, Carlsbad, Calif.). Protein bands were visualized by silver staining (Amersham Pharmacia Biotech, Sweden). Western blot was carried out as described (Tai, H. L. et al., “Thiopurine S-methyltransferase deficiency: two nucleotide transitions define the most prevalent mutant allele associated with loss of catalytic activity in Caucasians” Am J Hum Genet 58:694-702 (1996)). Polyclonal anti-human GGH rabbit antibody was kindly provided by Drs Thomas J. Ryan and […]. GGH activity was measured using MTEN buffer with 25 mM DTT. The assay mixture without substrate was incubated at 37° C. for 20 min, followed by incubation with substrate at 37° C. for 5 min and boiling for 5 min. In each experiment, wild-type and variant GGH were analyzed in parallel using varying concentrations of MTX-PG5 or MTX-PG2 as substrate. The substrate and the reaction products were analyzed by HPLC, and GGH activity was calculated by total amount of product formed per min per μg protein. Two independent experiments were carried on with each substrate. Nonlinear least-squares regression was used to estimate Km and Vmax by fitting a Michaels-Menten model as described earlier (Panetta, J. C. et al., id).

GGH = target: T2, GGH (Homo sapiens, UniProt Q92820, T151I); conditions: MTXPG2 as the substrate; reported by Chave et al. 2003; cited from earlier work
T2 sequence (Q92820 25-318 T151I): T1 sequence (Q92820 25-318 T151I)

SMILES	difference in Km between the wild-type and T127I variant (T127I variant GGH)	difference in Vmax between the wild-type and T127I variant (T127I variant GGH)	difference in catalytic efficiency between the wild-type and T127I variant (T127I variant GGH)	effect of T127I mutation on GGH activity (GGH)	Km increase of T127I variant compared to wild-type GGH (T127I variant GGH; p=0.021)	catalytic efficiency (Vmax/Km) reduction of T127I variant (T127I variant GGH)	catalytic efficiency (Vmax/Km) reduction of T127I variant (T127I variant GGH; listed as MTXPG5)
CN(Cc1cnc2nc(N)nc(N)c2n1)c1ccc(C(=O)N[C@@H](CCC(=O)N[C@@H](CCC(=O)O)C(=O)O)C(=O)O)cc1 [MTX-PG2]	not a significant difference	not a significant difference	not a significant difference	did not change GGH activity	–	–	–
CN(Cc1cnc2nc(N)nc(N)c2n1)c1ccc(C(=O)N[C@@H](CCC(=O)N[C@@H](CCC(=O)N[C@@H](CCC(=O)N[C@@H](CCC(=O)N[C@@H](CCC(=O)O)C(=O)O)C(=O)O)C(=O)O)C(=O)O)C(=O)O)cc1 [MTX-PG5]	–	not a significant difference	–	–	2.7 fold	67%	67.5%
